Holding throughout (type): biochemical
For experiment [1], the target named is T1, Tek (Homo sapiens, UniProt Q02763).
T1 construct: amino acids 773-1124 of the cytoplasmic kinase domain of human Tek, N-terminally fused to GST; made in house; host or cells: Sf9 insect cells (baculovirus)
The experiment in a line: Recombinant GST-Tek (Tie-2) tyrosine kinase assay (33P into poly(Glu,Tyr)). To be noted: Examples 1 to 169. The gist of the method: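 GST-fused human Tek kinase domain (aa 773-1124), baculovirus-expressed, 150 ng per reaction; 10 μg/mL poly(Glu,Tyr) 4:1, 4.0 μM [γ-33P]ATP, 3 mM MnCl2/3 mM MgCl2, pH 7.5, 30 min at ambient temperature. 33P uptake read on PVDF filters; IC50 by linear regression from four concentrations in duplicate.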

Experiment [2] concerns the target T2, KDR (Homo sapiens, UniProt P35968).
T2 construct: expressed in transfected cells; host or cells: CHO cells
The experiment in a line: Inhibitory activity against KDR (VEGF-R2), in vitro data of Examples 170 and 207. To be noted: 10 μM; Examples 1 to 169; read-out: KDR inhibition at 10 μM. The gist of the method:
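KDR tyrosine phosphorylation detected by luminescence after overnight 4° C capture of 20 μg lysate protein with PY20:AP antibody. Lysates came from cells given compound for 2 h at 37° C, then final 20 ng/ml VEGF for 5 min; compound-free medium as control.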

The target in experiment [3] is T3, FGFR3 (K650E) (Homo sapiens, UniProt P22607, K650E).
T3 construct: amino acids 411-806 of the cytoplasmic domain of human FGFR-3, N-terminally fused to GST; made in house; host or cells: Sf9 insect cells (baculovirus)
The experiment in a line: Recombinant GST-FGFR-3-K650E tyrosine kinase assay (33P into poly(Glu,Tyr)). As to conditions: 10 μM; Examples 1 to 169; read-out: FGFR3 (K650E) inhibition at 10 μM.

Experimental findings from patent US8552002B2 (Novartis AG, priority 2004, dated 2013) are described below.

T3 sequence (P22607 411-806 K650E): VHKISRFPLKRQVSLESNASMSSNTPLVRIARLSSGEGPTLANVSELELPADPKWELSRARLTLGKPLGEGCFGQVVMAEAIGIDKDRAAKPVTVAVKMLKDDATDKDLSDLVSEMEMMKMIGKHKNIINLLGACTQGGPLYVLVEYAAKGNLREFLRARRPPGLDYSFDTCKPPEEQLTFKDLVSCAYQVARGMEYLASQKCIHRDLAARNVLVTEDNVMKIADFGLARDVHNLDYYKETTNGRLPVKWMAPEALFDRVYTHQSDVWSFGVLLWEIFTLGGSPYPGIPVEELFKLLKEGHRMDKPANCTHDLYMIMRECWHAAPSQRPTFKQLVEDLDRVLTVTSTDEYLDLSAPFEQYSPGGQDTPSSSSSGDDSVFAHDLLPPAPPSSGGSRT
T1 sequence (Q02763 773-1124): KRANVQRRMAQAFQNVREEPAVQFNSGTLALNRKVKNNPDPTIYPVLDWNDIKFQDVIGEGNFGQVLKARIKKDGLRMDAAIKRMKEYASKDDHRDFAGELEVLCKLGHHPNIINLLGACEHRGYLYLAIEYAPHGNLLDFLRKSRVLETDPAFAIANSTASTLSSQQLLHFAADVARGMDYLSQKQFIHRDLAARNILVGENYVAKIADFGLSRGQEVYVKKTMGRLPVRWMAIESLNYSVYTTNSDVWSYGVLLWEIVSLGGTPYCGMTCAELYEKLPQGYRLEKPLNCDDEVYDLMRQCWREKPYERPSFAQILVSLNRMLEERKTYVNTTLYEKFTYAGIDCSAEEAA
T2 sequence (P35968 20-1356): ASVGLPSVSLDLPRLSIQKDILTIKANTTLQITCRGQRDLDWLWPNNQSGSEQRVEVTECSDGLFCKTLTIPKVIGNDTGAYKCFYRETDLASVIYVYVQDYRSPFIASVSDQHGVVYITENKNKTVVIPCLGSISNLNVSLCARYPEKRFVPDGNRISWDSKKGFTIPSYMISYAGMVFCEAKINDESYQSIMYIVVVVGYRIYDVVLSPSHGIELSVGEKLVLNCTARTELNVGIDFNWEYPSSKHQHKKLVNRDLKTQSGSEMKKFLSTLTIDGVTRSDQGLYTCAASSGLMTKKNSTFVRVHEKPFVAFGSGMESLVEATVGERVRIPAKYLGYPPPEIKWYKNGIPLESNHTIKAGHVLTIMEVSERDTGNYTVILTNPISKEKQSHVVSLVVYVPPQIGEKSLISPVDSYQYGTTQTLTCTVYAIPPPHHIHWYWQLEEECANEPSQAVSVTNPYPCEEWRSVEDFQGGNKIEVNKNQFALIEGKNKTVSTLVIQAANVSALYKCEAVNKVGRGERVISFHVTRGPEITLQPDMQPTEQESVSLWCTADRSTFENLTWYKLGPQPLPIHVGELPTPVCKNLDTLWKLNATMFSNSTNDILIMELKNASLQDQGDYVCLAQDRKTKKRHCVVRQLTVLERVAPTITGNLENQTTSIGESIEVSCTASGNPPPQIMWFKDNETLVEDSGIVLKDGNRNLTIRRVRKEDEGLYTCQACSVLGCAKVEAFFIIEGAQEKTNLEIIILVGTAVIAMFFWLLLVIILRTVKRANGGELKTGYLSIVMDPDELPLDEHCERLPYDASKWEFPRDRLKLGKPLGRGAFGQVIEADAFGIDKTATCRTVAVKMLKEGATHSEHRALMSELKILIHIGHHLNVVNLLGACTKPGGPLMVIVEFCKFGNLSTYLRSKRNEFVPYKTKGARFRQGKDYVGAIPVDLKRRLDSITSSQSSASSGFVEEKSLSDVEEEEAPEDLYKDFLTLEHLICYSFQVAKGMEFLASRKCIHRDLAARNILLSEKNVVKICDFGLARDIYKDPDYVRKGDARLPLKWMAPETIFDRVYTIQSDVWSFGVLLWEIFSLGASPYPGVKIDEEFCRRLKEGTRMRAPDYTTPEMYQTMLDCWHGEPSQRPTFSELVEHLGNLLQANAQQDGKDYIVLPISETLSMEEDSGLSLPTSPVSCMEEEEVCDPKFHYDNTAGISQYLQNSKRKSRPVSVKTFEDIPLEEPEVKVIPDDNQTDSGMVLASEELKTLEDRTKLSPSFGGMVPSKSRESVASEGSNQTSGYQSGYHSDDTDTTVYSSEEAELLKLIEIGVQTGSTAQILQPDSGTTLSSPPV

Take `CCN(C(=O)Nc1cccc(OC)c1OC)c1cc(Nc2ccc(N3CCN(C)CC3)cc2)ncn1` [Example 46, 3-(2,3-Dimethoxy-phenyl)-1-ethyl-1-{6-[4-(4-methyl-piperazin-1-yl)-phenylamino]-pyrimidin-4-yl}-urea]: the values for the inhibition at 10 µM in experiment [1], in experiment [2] and in experiment [3] were 12 to 100%, 67 to 100% and 27 to 100%, respectively.
For `COc1cc(NC(=O)N(C)c2cc(Nc3cccc(N4CCN(C)CC4)c3)ncn2)cc(OC)c1` [Example 48, 3-(3,5-Dimethoxy-phenyl)-1-methyl-1-{6-[3-(4-methyl-piperazin-1-yl)-phenylamino]-pyrimidin-4-yl}-urea], in that order: 12 to 100%, 67 to 100% and 27 to 100%.
For `COc1cc(NC(=O)N(C)c2cc(Nc3ccccc3)ncn2)c(Cl)c(OC)c1` [Example 49, 3-(2-Chloro-3,5-dimethoxy-phenyl)-1-methyl-1-(6-phenylamino-pyrimidin-4-yl)-urea], in that order: 12 to 100%, 67 to 100% and 27 to 100%.
For `COc1cc(NC(=O)N(C)c2cc(Nc3cccc(N4CCN(C)CC4)c3)ncn2)c(Cl)c(OC)c1` [Example 51, 3-(2-Chloro-3,5-dimethoxy-phenyl)-1-methyl-1-{6-[3-(4-methyl-piperazin-1-yl)-phenylamino]-pyrimidin-4-yl}-urea], in that order: 12 to 100%, 67 to 100% and 27 to 100%.
Turning to `COc1cc(NC(=O)N(C)c2cc(Nc3ccc(C(=O)N4CCN(C)CC4)cc3)ncn2)c(Cl)c(OC)c1` [Example 52, 3-(2-Chloro-3,5-dimethoxy-phenyl)-1-methyl-1-{6-[4-(4-methyl-piperazine-1-carbonyl)-phenylamino]-pyrimidin-4-yl}-urea], the inhibition (commonly the change of the read-out against control, counted positive when it falls) at 10 µM in experiment [1] lay within 12 to 100%; in experiment [2], 67 to 100%; in experiment [3], 27 to 100%.
For `CCN(CC)CCOc1ccc(Nc2cc(N(C)C(=O)Nc3cc(OC)cc(OC)c3Cl)ncn2)cc1` [Example 53, 3-(2-Chloro-3,5-dimethoxy-Phenyl)-1-{6-[4-(2-diethylamino-ethoxy)-phenylamino]-pyrimidin-4-yl}-1-methyl-urea], in that order: 12 to 100%, 67 to 100% and 27 to 100%.
As to `COc1cc(NC(=O)N(C)c2cc(Nc3cccc(OCCN(C)C)c3)ncn2)c(Cl)c(OC)c1` [Example 54, 3-(2-Chloro-3,5-dimethoxy-phenyl)-1-{6-[3-(2-dimethylamino-ethoxy)-phenylamino]-pyrimidin-4-yl}-1-methyl-urea], the inhibition at 10 µM is 12 to 100% in experiment [1], 67 to 100% in experiment [2] and 27 to 100% in experiment [3].
For `COc1cc(NC(=O)N(Cc2cccs2)c2cc(Nc3ccc(N4CCN(C)CC4)cc3)ncn2)c(Cl)c(OC)c1` [Example 56, 3-(2-Chloro-3,5-dimethoxy-phenyl)-1-{6-[4-(4-methyl-piperazin-1-yl)-phenylamino]-pyrimidin-4-yl}-1-thiophen-2-ylmethyl-urea], in that order: 12 to 100%, 67 to 100% and 27 to 100%.
For `COc1cc(NC(=O)N(CCN2CCN(C)CC2)c2cc(Nc3ccccc3)ncn2)c(Cl)c(OC)c1` [Example 57, 3-(2-Chloro-3,5-dimethoxy-phenyl)-1-[2-(4-methyl-piperazin-1-yl)-ethyl]-1-(6-phenylamino-pyrimidin-4-yl)-urea], in that order: 12 to 100%, 67 to 100% and 27 to 100%.
For `COc1cc(NC(=O)N(CCc2ccccn2)c2cc(Nc3ccccc3)ncn2)c(Cl)c(OC)c1` [Example 58, 3-(2-Chloro-3,5-dimethoxy-phenyl)-1-(6-phenylamino-pyrimidin-4-yl)-1-(2-pyridin-2-yl-ethyl)-urea], in that order: 12 to 100%, 67 to 100% and 27 to 100%.
As to `CCN(C(=O)Nc1c(Cl)ccc(OC)c1Cl)c1cc(Nc2ccc(N3CCN(C)CC3)cc2)ncn1` [Example 59, 3-(2,6-Dichloro-3-methoxy-phenyl)-1-ethyl-1-{6-[4-(4-methyl-piperazin-1-yl)-phenylamino]-pyrimidin-4-yl}-urea], the inhibition at 10 µM in experiment [1] was in the range of 12 to 100%; in experiment [2], 67 to 100%; in experiment [3] it was 27 to 100%.
For `COc1ccc(Cl)c(NC(=O)N(C)c2cc(Nc3cccc(N4CCN(C)CC4)c3)ncn2)c1Cl` [Example 60, 3-(2,6-Dichloro-3-methoxy-phenyl)-1-methyl-1-{6-[3-(4-methyl-piperazin-1-yl)-phenylamino]-pyrimidin-4-yl}-urea], in that order: 12 to 100%, 67 to 100% and 27 to 100%.
As for `COc1ccc(Cl)c(NC(=O)N(C)c2cc(Nc3ccc(C(=O)N4CCN(C)CC4)cc3)ncn2)c1Cl` [Example 61, 3-(2,6-Dichloro-3-methoxy-phenyl)-1-methyl-1-{6-[4-(4-methyl-piperazine-1-carbonyl)-phenylamino]-pyrimidin-4-yl}-urea], the inhibition at 10 µM in experiment [1] lay in the range of 12 to 100%; in experiment [2], 67 to 100%; in experiment [3], 27 to 100%.
As to `COc1ccc(Cl)c(NC(=O)N(C)c2cc(Nc3ccc(CN4CCN(C)CC4)cc3)ncn2)c1Cl` [Example 62, 3-(2,6-Dichloro-3-methoxy-phenyl)-1-methyl-1-{6-[4-(4-methyl-piperazin-1-ylmethyl)-phenylamino]-pyrimidin-4-yl}-urea], the inhibition at 10 µM in experiment [1] was 12 to 100%; in experiment [2] it was 67 to 100%; in experiment [3], 27 to 100%.
For `COc1ccc(CN(C(=O)Nc2c(Cl)ccc(OC)c2Cl)c2cc(Nc3ccc(N4CCN(C)CC4)cc3)ncn2)cn1` [Example 63, 3-(2,6-Dichloro-3-methoxy-phenyl)-1-(6-methoxy-pyridin-3-ylmethyl)-1-{6-[4-(4-methyl-piperazin-1-yl)-phenylamino]-pyrimidin-4-yl}-urea], in that order: 12 to 100%, 67 to 100% and 27 to 100%.
For `CCN(C(=O)Nc1c(Cl)c(OC)cc(OC)c1Cl)c1cc(Nc2ccc(C(=O)N3CCN(C)CC3)cc2)ncn1` [Example 64, 3-(2,6-Dichloro-3,5-dimethoxy-phenyl)-1-ethyl-1-{6-[4-(4-methyl-piperazine-1-carbonyl)-phenylamino]-pyrimidin-4-yl}-urea], in that order: 12 to 100%, 67 to 100% and 27 to 100%.
For `COc1ccc(Cl)cc1NC(=O)Nc1cc(Nc2ccc(N3CCN(C)CC3)cc2)ncn1` [Example 78, 1-(5-Chloro-2-methoxy-phenyl)-3-{6-[4-(4-methyl-piperazin-1-yl)-phenylamino]-pyrimidin-4-yl}-urea], in that order: 12 to 100%, 67 to 100% and 27 to 100%.
Consider `O=C(Nc1cc(N[C@H]2CC[C@H](O)CC2)ncn1)Nc1c(Cl)cccc1Cl` [Example 92, 1-(2,6-Dichloro-phenyl)-3-[6-((trans)-4-hydroxy-cyclohexylamino)-pyrimidin-4-yl]-urea], for which the inhibition at 10 µM fell in the range of 12 to 100% in experiment [1], 67 to 100% in experiment [2] and 27 to 100% in experiment [3].
For `CN1CCN(c2ccc(Nc3cc(NC(=O)Nc4ccccc4Cl)ncn3)cc2)CC1` [Example 93, 1-(2-Chloro-phenyl)-3-{6-[4-(4-methyl-piperazin-1-yl)-phenylamino]-pyrimidin-4-yl}-urea], the inhibition at 10 µM was in the range of 12 to 100% in experiment [1], 67 to 100% in experiment [2] and 27 to 100% in experiment [3].
For `CN1CCN(c2ccc(Nc3cc(NC(=O)Nc4ccccc4Br)ncn3)cc2)CC1` [Example 94, 1-(2-Bromo-phenyl)-3-{6-[4-(4-methyl-piperazin-1-yl)-phenylamino]-pyrimidin-4-yl}-urea], in that order: 12 to 100%, 67 to 100% and 27 to 100%.
As for `CCN(CC)CCCOc1ccc(N(C(=O)Nc2ccccc2Cl)c2cc(N)ncn2)cc1` [Example 95, 1-(6-Amino-pyrimidin-4-yl}-3-(2-chloro-phenyl)-1-[4-(3-diethylamino-propoxy)-phenyl]-urea], the inhibition at 10 µM in experiment [1] lay within 12 to 100%; in experiment [2] it was 67 to 100%; in experiment [3], 27 to 100%.
For `O=C(Nc1cc(Nc2ccc(OCCN3CCOCC3)cc2)ncn1)Nc1c(Cl)cccc1Cl` [Example 96, 1-(2,6-Dichloro-phenyl)-3-{6-[4-(2-morpholin-4-yl-ethoxy)-phenylamino]-pyrimidin-4-yl}-urea], in that order: 12 to 100%, 67 to 100% and 27 to 100%.
As for `O=C(Nc1cc(Nc2ccc(OCCN3CCOCC3)cc2)ncn1)Nc1ccccc1Br` [Example 97, 1-(2-Bromo-phenyl)-3-{6-[4-(2-morpholin-4-yl-ethoxy)-phenylamino]-pyrimidin-4-yl}-urea], the inhibition at 10 µM is 12 to 100% in experiment [1], 67 to 100% in experiment [2] and 27 to 100% in experiment [3].
